In US9006487B2, “Amine-containing lipids and uses thereof” (Massachusetts Institute of Technology, priority 2005, dated 2015):
“And” between values parts separate entries of the source, which are not always exact repeats. Equal values may be shown once.

tested on: cos-7 cells; assay: DNA transfection: luciferase expression relative to Lipofectamine 2000; assay type: cell-based; details: lipid/DNA 2.5 w/w; 300 ng of DNA per well
Procedure, shortened: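 Lipid/DNA complexes, 300 ng luciferase DNA per well at 2.5-25 w/w lipid:DNA, were formed in sodium acetate/Optimem and added to overnight-seeded cos-7 cells. Luciferase was measured by Bright-Glo luminescence after 48 hours and quantified against an enzyme standard curve. Values are expressed as % of Lipofectamine 2000 at 2.5 w/w.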

| Compound | luciferase expression (second part of table, values relative to LIPO2000) |
| --- | --- |
| CCCCCCCCCCCCCCNC(=O)CCN(C)CCN(C)CCC(=O)NCCCCCCCCCCCCCC [NF60] | 6.8 |
| CCCCCCCCCCCCCCNC(=O)CCN(CC)CCN(CC)CCC(=O)NCCCCCCCCCCCCCC [NF61] | 63.9 |
| CCCCCCCCCCCCCCNC(=O)CCN(CC)CCCN(CC)CCC(=O)NCCCCCCCCCCCCCC [NF64] | 5.7 |
| CCCCCCCCCCCCCCNC(=O)CCN(CCC(=O)NCCCCCCCCCCCCCC)CCN(CCO)CCO [NF86] | 56.7 |
| CCCCCCCCCCCCCCNC(=O)CCN(CCCN(CCO)CCO)CCC(=O)NCCCCCCCCCCCCCC [NF87] | 46.1 |
| CCCCCCCCCCCCCCNC(=O)CCN(C)CCN(CCC(=O)NCCCCCCCCCCCCCC)CCC(=O)NCCCCCCCCCCCCCC [NF95] | 131.6 |
| CCCCCCCCCCCCCCNC(=O)CCN(CCCN(CCC(=O)NCCCCCCCCCCCCCC)CCC(=O)NCCCCCCCCCCCCCC)CCC(=O)NCCCCCCCCCCCCCC [NF100] | 75.9 |
| CCCCCCCCCCCCCCNC(=O)CCN(CCO)CCN(CCO)CCC(=O)NCCCCCCCCCCCCCC [NF103] | 183.1 |

same assay, conditions: lipid/DNA 5 w/w; 300 ng of DNA per well

| Compound | luciferase expression (second part of table, values relative to LIPO2000) |
| --- | --- |
| CCCCCCCCCCCCCCNC(=O)CCN(C)CCN(C)CCC(=O)NCCCCCCCCCCCCCC [NF60] | 21.9 |
| CCCCCCCCCCCCCCNC(=O)CCN(CC)CCN(CC)CCC(=O)NCCCCCCCCCCCCCC [NF61] | 67.7 |
| CCCCCCCCCCCCCCNC(=O)CCN(CC)CCCN(CC)CCC(=O)NCCCCCCCCCCCCCC [NF64] | 41.9 |
| CCCCCCCCCCCCCCNC(=O)CCN(CCC(=O)NCCCCCCCCCCCCCC)CCN(CCO)CCO [NF86] | 53.3 |
| CCCCCCCCCCCCCCNC(=O)CCN(CCCN(CCO)CCO)CCC(=O)NCCCCCCCCCCCCCC [NF87] | 44.8 |
| CCCCCCCCCCCCCCNC(=O)CCN(C)CCN(CCC(=O)NCCCCCCCCCCCCCC)CCC(=O)NCCCCCCCCCCCCCC [NF95] | 141.8 |
| CCCCCCCCCCCCCCNC(=O)CCN(CCCN(CCC(=O)NCCCCCCCCCCCCCC)CCC(=O)NCCCCCCCCCCCCCC)CCC(=O)NCCCCCCCCCCCCCC [NF100] | 0.5 |
| CCCCCCCCCCCCCCNC(=O)CCN(CCO)CCN(CCO)CCC(=O)NCCCCCCCCCCCCCC [NF103] | 23.6 |

same assay, conditions: lipid/DNA 10 w/w; 300 ng of DNA per well

| Compound | luciferase expression (second part of table, values relative to LIPO2000) |
| --- | --- |
| CCCCCCCCCCCCCCNC(=O)CCN(C)CCN(C)CCC(=O)NCCCCCCCCCCCCCC [NF60] | 28.9 |
| CCCCCCCCCCCCCCNC(=O)CCN(CC)CCN(CC)CCC(=O)NCCCCCCCCCCCCCC [NF61] | 7.0 |
| CCCCCCCCCCCCCCNC(=O)CCN(CC)CCCN(CC)CCC(=O)NCCCCCCCCCCCCCC [NF64] | 0.3 |
| CCCCCCCCCCCCCCNC(=O)CCN(CCC(=O)NCCCCCCCCCCCCCC)CCN(CCO)CCO [NF86] | 4.5 |
| CCCCCCCCCCCCCCNC(=O)CCN(CCCN(CCO)CCO)CCC(=O)NCCCCCCCCCCCCCC [NF87] | 0.3 |
| CCCCCCCCCCCCCCNC(=O)CCN(C)CCN(CCC(=O)NCCCCCCCCCCCCCC)CCC(=O)NCCCCCCCCCCCCCC [NF95] | 100.5 |
| CCCCCCCCCCCCCCNC(=O)CCN(CCCN(CCC(=O)NCCCCCCCCCCCCCC)CCC(=O)NCCCCCCCCCCCCCC)CCC(=O)NCCCCCCCCCCCCCC [NF100] | 0.0 |
| CCCCCCCCCCCCCCNC(=O)CCN(CCO)CCN(CCO)CCC(=O)NCCCCCCCCCCCCCC [NF103] | 0.0 |

same assay, conditions: lipid/DNA 15 w/w; 300 ng of DNA per well

| Compound | luciferase expression (second part of table, values relative to LIPO2000) |
| --- | --- |
| CCCCCCCCCCCCCCNC(=O)CCN(C)CCN(C)CCC(=O)NCCCCCCCCCCCCCC [NF60] | 49.1 |
| CCCCCCCCCCCCCCNC(=O)CCN(CC)CCN(CC)CCC(=O)NCCCCCCCCCCCCCC [NF61] | 2.9 |
| CCCCCCCCCCCCCCNC(=O)CCN(CC)CCCN(CC)CCC(=O)NCCCCCCCCCCCCCC [NF64] | 0.1 |
| CCCCCCCCCCCCCCNC(=O)CCN(CCC(=O)NCCCCCCCCCCCCCC)CCN(CCO)CCO [NF86] | 2.3 |
| CCCCCCCCCCCCCCNC(=O)CCN(CCCN(CCO)CCO)CCC(=O)NCCCCCCCCCCCCCC [NF87] | 0.0 |
| CCCCCCCCCCCCCCNC(=O)CCN(C)CCN(CCC(=O)NCCCCCCCCCCCCCC)CCC(=O)NCCCCCCCCCCCCCC [NF95] | 33.9 |
| CCCCCCCCCCCCCCNC(=O)CCN(CCCN(CCC(=O)NCCCCCCCCCCCCCC)CCC(=O)NCCCCCCCCCCCCCC)CCC(=O)NCCCCCCCCCCCCCC [NF100] | 0.0 |
| CCCCCCCCCCCCCCNC(=O)CCN(CCO)CCN(CCO)CCC(=O)NCCCCCCCCCCCCCC [NF103] | 0.0 |

same assay, conditions: replicate set, 1st column; no head printed (2.5 w/w by the raw values)

| Compound | luciferase expression, second set of columns (replicate set of data) |
| --- | --- |
| CCCCCCCCCCCCCCNC(=O)CCN(CC)CCN(CC)CCC(=O)NCCCCCCCCCCCCCC [NF61] | 5.2 |
| CCCCCCCCCCCCCCNC(=O)CCN(C)CCN(CCC(=O)NCCCCCCCCCCCCCC)CCC(=O)NCCCCCCCCCCCCCC [NF95] | 6.0 |
| CCCCCCCCCCCCCCNC(=O)CCN(CCO)CCN(CCO)CCC(=O)NCCCCCCCCCCCCCC [NF103] | 66.2 |

same assay, conditions: replicate set, 2nd column; no head printed (5 w/w by the raw values)

| Compound | luciferase expression, second set of columns (replicate set of data) |
| --- | --- |
| CCCCCCCCCCCCCCNC(=O)CCN(CC)CCN(CC)CCC(=O)NCCCCCCCCCCCCCC [NF61] | 38.9 |
| CCCCCCCCCCCCCCNC(=O)CCN(C)CCN(CCC(=O)NCCCCCCCCCCCCCC)CCC(=O)NCCCCCCCCCCCCCC [NF95] | 9.4 |
| CCCCCCCCCCCCCCNC(=O)CCN(CCO)CCN(CCO)CCC(=O)NCCCCCCCCCCCCCC [NF103] | 51.3 |

same assay, conditions: replicate set, 3rd column; no head printed (10 w/w by the raw values)

| Compound | luciferase expression, second set of columns (replicate set of data) |
| --- | --- |
| CCCCCCCCCCCCCCNC(=O)CCN(CC)CCN(CC)CCC(=O)NCCCCCCCCCCCCCC [NF61] | 8.6 |
| CCCCCCCCCCCCCCNC(=O)CCN(C)CCN(CCC(=O)NCCCCCCCCCCCCCC)CCC(=O)NCCCCCCCCCCCCCC [NF95] | 4.7 |
| CCCCCCCCCCCCCCNC(=O)CCN(CCO)CCN(CCO)CCC(=O)NCCCCCCCCCCCCCC [NF103] | 0.6 |

same assay, conditions: replicate set, 4th column; no head printed (15 w/w by the raw values)

| Compound | luciferase expression, second set of columns (replicate set of data) |
| --- | --- |
| CCCCCCCCCCCCCCNC(=O)CCN(CC)CCN(CC)CCC(=O)NCCCCCCCCCCCCCC [NF61] | 1.1 |
| CCCCCCCCCCCCCCNC(=O)CCN(C)CCN(CCC(=O)NCCCCCCCCCCCCCC)CCC(=O)NCCCCCCCCCCCCCC [NF95] | 12.1 |
| CCCCCCCCCCCCCCNC(=O)CCN(CCO)CCN(CCO)CCC(=O)NCCCCCCCCCCCCCC [NF103] | 0.0 |

tested on: not listed separately; assay: DNA delivery: raw luciferase expression (relative light units) of best-transfecting lipids; assay type: cell-based; details: lipid/DNA 2.5 w/w; 300 ng of DNA per well
Method: Raw values for luciferase expression (relative lights units) of best-transfecting lipids at lipid/DNA (w/w) ratios listed. 300 ng of DNA was added per well.

| Compound | Raw values for luciferase expression [relative lights units] |
| --- | --- |
| CCCCCCCCCCCCCCNC(=O)CCN(CC)CCCN(CC)CCC(=O)NCCCCCCCCCCCCCC [NF64] | 384317 |
| CCCCCCCCCCCCCCNC(=O)CCN(CCCN(CCO)CCO)CCC(=O)NCCCCCCCCCCCCCC [NF87] | 3904993 |

Now from value to compound:

| Raw values for luciferase expression [relative lights units] | Compound |
| --- | --- |
| 4798383 | CCCCCCCCCCCCCCNC(=O)CCN(CCC(=O)NCCCCCCCCCCCCCC)CCN(CCO)CCO [NF86] |
| 1061441 | CCCCCCCCCCCCCCNC(=O)CCN(CCCN(CCC(=O)NCCCCCCCCCCCCCC)CCC(=O)NCCCCCCCCCCCCCC)CCC(=O)NCCCCCCCCCCCCCC [NF100] |
| 3202948 | CCCCCCCCCCCCCCCCNC(=O)CCN(CCC(=O)NCCCCCCCCCCCCCCCC)CCN(CCC(=O)NCCCCCCCCCCCCCCCC)CCC(=O)NCCCCCCCCCCCCCCCC [NP99] |

same assay, conditions: lipid/DNA 5 w/w; 300 ng of DNA per well

| Compound | Raw values for luciferase expression |
| --- | --- |
| CCCCCCCCCCCCCCNC(=O)CCN(CC)CCN(CC)CCC(=O)NCCCCCCCCCCCCCC [NF61] | 3689556 relative lights units and 3053999 relative lights units |
| CCCCCCCCCCCCCCNC(=O)CCN(CC)CCCN(CC)CCC(=O)NCCCCCCCCCCCCCC [NF64] | 2283250 relative lights units |
| CCCCCCCCCCCCCCNC(=O)CCN(CCCN(CCO)CCO)CCC(=O)NCCCCCCCCCCCCCC [NF87] | 3436007 relative lights units |
| CCCCCCCCCCCCCCNC(=O)CCN(C)CCN(CCC(=O)NCCCCCCCCCCCCCC)CCC(=O)NCCCCCCCCCCCCCC [NF95] | 2082965 relative lights units and 3775212 relative lights units |

More lines, now with the values ahead:

| Raw values for luciferase expression | Compound |
| --- | --- |
| 4087285 relative lights units | CCCCCCCCCCCCCCNC(=O)CCN(CCC(=O)NCCCCCCCCCCCCCC)CCN(CCO)CCO [NF86] |
| 8015 relative lights units | CCCCCCCCCCCCCCNC(=O)CCN(CCCN(CCC(=O)NCCCCCCCCCCCCCC)CCC(=O)NCCCCCCCCCCCCCC)CCC(=O)NCCCCCCCCCCCCCC [NF100] |
| 9767 relative lights units | CCCCCCCCCCCCCCCCNC(=O)CCN(CCC(=O)NCCCCCCCCCCCCCCCC)CCN(CCC(=O)NCCCCCCCCCCCCCCCC)CCC(=O)NCCCCCCCCCCCCCCCC [NP99] |

same assay, conditions: lipid/DNA 10 w/w; 300 ng of DNA per well

| Raw values for luciferase expression [relative lights units] | Compound |
| --- | --- |
| 2401570 | CCCCCCCCCCCCCCNC(=O)CCN(C)CCN(C)CCC(=O)NCCCCCCCCCCCCCC [NF60] |
| 1906488 | CCCCCCCCCCCCCCNC(=O)CCN(C)CCN(CCC(=O)NCCCCCCCCCCCCCC)CCC(=O)NCCCCCCCCCCCCCC [NF95] |
| 2886271 | CCCCCCCCCCCCCCNC(=O)CCN(CCO)CCN(CCO)CCC(=O)NCCCCCCCCCCCCCC [NF103] |

same assay, conditions: lipid/DNA 15 w/w; 300 ng of DNA per well

| Raw values for luciferase expression [relative lights units] | Compound |
| --- | --- |
| 3739668 | CCCCCCCCCCCCCCNC(=O)CCN(C)CCN(C)CCC(=O)NCCCCCCCCCCCCCC [NF60] |
| 918612 | CCCCCCCCCCCCCCNC(=O)CCN(C)CCN(CCC(=O)NCCCCCCCCCCCCCC)CCC(=O)NCCCCCCCCCCCCCC [NF95] |
| 772518 | CCCCCCCCCCCCCCNC(=O)CCN(CCO)CCN(CCO)CCC(=O)NCCCCCCCCCCCCCC [NF103] |
